Species: Rattus norvegicus
Test: Open TG-GATES - Regimen: Single
Assay type: toxicity, organism-based, Sprague-Dawley
Design: regimen Single, gender Male, age 6 weeks
Conditions: in vivo, po, route gavage; for APTT / Bas / Eos / Fbg / Hb / Ht / Lym / MCH / MCHC / MCV / Mono / Neu / PT / Plat / RBC / WBC: tissue Blood; for KIDNEY_L / KIDNEY_R / KIDNEY_TOTAL: tissue Kidney; for LIVER: tissue Liver; for ALT / AST / CRE / Cl / DBIL / GLC / IP / LDH / Na / RALB / TBIL / TC / TG / TP / gamma-GTP / BUN: tissue Plasma
[1] = 0 mg/kg, 3 h, dose level Control
[2] = 0 mg/kg, 6 h, dose level Control
[3] = 0 mg/kg, 9 h, dose level Control
[4] = 0 mg/kg, 24 h, dose level Control

**Q.** Which results are given for `CC/C(=C(\c1ccccc1)c1ccc(OCCN(C)C)cc1)c1ccccc1` [TAMOXIFEN]?
**A.** TERMINAL_BW [1]: 194.3 g; APTT [1]: 16.9 s; Bas [1]: 0%; Eos [1]: 0.8%; Fbg [1]: 248.6 mg/dL; Hb [1]: 13 g/dL; Ht [1]: 39.1%; Lym [1]: 76%; MCH [1]: 21.6 pg; MCHC [1]: 33.2%; MCV [1]: 65.1 fL; Mono [1]: 3.6%; Neu [1]: 19.2%; PT [1]: 12.2 s; Plat [1]: 123.1 x10_4/uL; RBC [1]: 601.8 x10_4/ul; WBC [1]: 87.4 x10_2/uL; KIDNEY_L [1]: 0.9 g; KIDNEY_R [1]: 0.8 g; KIDNEY_TOTAL [1]: 1.7 g; LIVER [1]: 8.3 g; ALT [1]: 47.6 IU/L; AST [1]: 77.6 IU/L; CRE [1]: 0.2 mg/dL; Cl [1]: 106.8 meq/L; DBIL [1]: 0.02 mg/dL; GLC [1]: 173.6 mg/dL; IP [1]: 10.2 mg/dL; LDH [1]: 69.6 IU/L; Na [1]: 140.8 meq/L; RALB [1]: 2.6 g/dL; TBIL [1]: 0.042 mg/dL; TC [1]: 86.4 mg/dL; TG [1]: 94.6 mg/dL; TP [1]: 5.6 g/dL; gamma-GTP [1]: 1.4 IU/L; TERMINAL_BW [2]: 192.7 g; APTT [2]: 16.1 s; Bas [2]: 0%; Eos [2]: 1%; Fbg [2]: 261.5 mg/dL; Hb [2]: 13.2 g/dL; Ht [2]: 39.6%; Lym [2]: 69.8%; MCH [2]: 21.8 pg; MCHC [2]: 33.4%; MCV [2]: 65.3 fL; Mono [2]: 3.2%; Neu [2]: 25.8%; PT [2]: 12.1 s; Plat [2]: 118.7 x10_4/uL; RBC [2]: 607 x10_4/ul; WBC [2]: 64.1 x10_2/uL; KIDNEY_L [2]: 0.8 g; KIDNEY_R [2]: 0.8 g; KIDNEY_TOTAL [2]: 1.7 g; LIVER [2]: 7.8 g; ALT [2]: 37.8 IU/L; AST [2]: 73 IU/L; BUN [2]: 9.8 mg/dL; CRE [2]: 0.2 mg/dL; Cl [2]: 110.2 meq/L; DBIL [2]: 0.015 mg/dL; GLC [2]: 171.2 mg/dL; IP [2]: 10 mg/dL; LDH [2]: 52.2 IU/L; Na [2]: 142.2 meq/L; RALB [2]: 2.6 g/dL; TBIL [2]: 0.0425 mg/dL; TC [2]: 86.5 mg/dL; TG [2]: 59 mg/dL; TP [2]: 5.4 g/dL; gamma-GTP [2]: 1 IU/L; TERMINAL_BW [3]: 194.3 g; APTT [3]: 16.5 s; Bas [3]: 0%; Eos [3]: 1%; Fbg [3]: 259.6 mg/dL; Hb [3]: 12.8 g/dL; Ht [3]: 38.4%; Lym [3]: 75.2%; MCHC [3]: 33.4%; MCV [3]: 64 fL; Mono [3]: 3%; PT [3]: 12.2 s; Plat [3]: 111.1 x10_4/uL; RBC [3]: 599.4 x10_4/ul; WBC [3]: 73.7 x10_2/uL; KIDNEY_L [3]: 0.8 g; KIDNEY_R [3]: 0.8 g; KIDNEY_TOTAL [3]: 1.6 g; LIVER [3]: 7.1 g; ALT [3]: 42.4 IU/L; AST [3]: 71.8 IU/L; BUN [3]: 10.2 mg/dL; CRE [3]: 0.2 mg/dL; Cl [3]: 107.2 meq/L; DBIL [3]: 0.012 mg/dL; GLC [3]: 184.6 mg/dL; LDH [3]: 50 IU/L; Na [3]: 142.8 meq/L; RALB [3]: 2.5 g/dL; TBIL [3]: 0.05 mg/dL; TC [3]: 84.6 mg/dL; TG [3]: 37.4 mg/dL; TP [3]: 5.3 g/dL; gamma-GTP [3]: 1.6 IU/L; TERMINAL_BW [4]: 200.5 g; APTT [4]: 15.5 s; Bas [4]: 0%; Eos [4]: 1%; Fbg [4]: 258.4 mg/dL; Hb [4]: 13 g/dL; Ht [4]: 38.9%; Lym [4]: 70.6%; MCH [4]: 21.5 pg; MCHC [4]: 33.5%; MCV [4]: 64.2 fL; Mono [4]: 4%; Neu [4]: 24%; PT [4]: 12.3 s; Plat [4]: 116.6 x10_4/uL; RBC [4]: 605.8 x10_4/ul; WBC [4]: 89.9 x10_2/uL; KIDNEY_L [4]: 0.9 g; KIDNEY_R [4]: 0.9 g; KIDNEY_TOTAL [4]: 1.8 g; LIVER [4]: 9.1 g; ALT [4]: 51.8 IU/L; AST [4]: 76.2 IU/L; BUN [4]: 14.6 mg/dL; CRE [4]: 0.2 mg/dL; Cl [4]: 107.2 meq/L; DBIL [4]: 0.012 mg/dL; GLC [4]: 183.8 mg/dL; IP [4]: 7.8 mg/dL; LDH [4]: 69 IU/L; Na [4]: 142.4 meq/L; RALB [4]: 2.6 g/dL; TBIL [4]: 0.034 mg/dL; TC [4]: 93.2 mg/dL; TG [4]: 83 mg/dL; TP [4]: 5.5 g/dL; gamma-GTP [4]: 1 IU/L; TERMINAL_BW (6 mg/kg, 3 h, dose level Low): 191.8 g
